From BindingDB's records for doi:10.7270/Q23T9FMP (The Scripps Research Institute Molecular Screening Center, 2007)
pEC50: −log10 of the molar value. Structures can show the parent of a compound that is named as a salt.

target: Steroidogenic factor 1 (Homo sapiens, UniProt Q13285); experiment: SF-1 activators, concentration-response, dose response, cell-based, CHO-K1, Gal4-SF-1 LBD, luciferase luminescence (AID 692); conditions: not given
Sequence (Q13285 whole entry, the tested form may be a part): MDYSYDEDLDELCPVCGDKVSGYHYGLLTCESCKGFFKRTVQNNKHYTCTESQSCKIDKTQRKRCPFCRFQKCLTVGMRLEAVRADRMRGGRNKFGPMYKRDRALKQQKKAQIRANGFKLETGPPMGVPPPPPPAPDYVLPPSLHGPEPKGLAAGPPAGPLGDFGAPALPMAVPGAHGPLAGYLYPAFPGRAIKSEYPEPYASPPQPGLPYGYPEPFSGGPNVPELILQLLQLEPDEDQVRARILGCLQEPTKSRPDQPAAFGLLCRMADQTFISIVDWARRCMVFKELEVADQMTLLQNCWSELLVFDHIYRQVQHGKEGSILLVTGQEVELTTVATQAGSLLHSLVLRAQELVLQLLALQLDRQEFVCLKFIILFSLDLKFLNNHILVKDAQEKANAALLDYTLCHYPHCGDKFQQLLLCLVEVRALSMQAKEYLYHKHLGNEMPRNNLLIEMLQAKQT

Row | Structure (SMILES) | pEC50
1 | CC1(C)Cc2c(sc(NC(=O)c3ccc(Br)o3)c2C#N)CO1 [5-bromanyl-N-(3-cyano-5,5-dimethyl-4,7-dihydrothieno[2,3-c]pyran-2-yl)furan-2-carboxamide] | < 6.39
2 | COc1ccc(OC)c2sc(NC(=O)c3ccc(Br)s3)nc12 [5-bromanyl-N-(4,7-dimethoxy-1,3-benzothiazol-2-yl)thiophene-2-carboxamide] | < 4.00
3 | O=C(Nc1cccc(-c2nnc(-c3ccccc3)o2)c1)c1ccc(Br)o1 [5-bromanyl-N-[3-(5-phenyl-1,3,4-oxadiazol-2-yl)phenyl]furan-2-carboxamide] | 5.39
4 | CCc1ccc(C(=O)NCc2cccs2)s1 [5-ethyl-N-(2-thenyl)thiophene-2-carboxamide] | 5.49
5 | c1ccc(-c2cnc(CSc3nnc4ccccn34)o2)cc1 [5-phenyl-2-([1,2,4]triazolo[4,3-a]pyridin-3-ylsulfanylmethyl)-1,3-oxazole] | 6.02
6 | COc1ccc(-c2cn3ccsc3n2)cc1 [6-(4-methoxyphenyl)imidazo[2,1-b][1,3]thiazole] | 6.42
7 | CCOC(=O)c1cnc2c(-c3ccccc3)cnn2c1N [7-amino-3-phenyl-6-pyrazolo[1,5-a]pyrimidinecarboxylic acid ethyl ester] | 6.74
8 | COCC(C)NC(=O)c1noc2c1CCc1cc(OC)ccc1-2 (stereo not given) [7-methoxy-N-(1-methoxypropan-2-yl)-4,5-dihydrobenzo[g][1,2]benzoxazole-3-carboxamide] | < 5.91
9 | CCc1nc(Nc2ccc3nccnc3c2)c2oc3ccccc3c2n1 [(2-ethylbenzofuro[3,2-d]pyrimidin-4-yl)-quinoxalin-6-yl-amine;hydrochloride] | < 4.00
10 | CC(=Nc1cccc(O)c1)c1sc2ccccc2c1O [(2Z)-2-[1-(3-hydroxyanilino)ethylidene]-1-benzothiophen-3-one] | 5.35
11 | COC(=O)CSc1nc2cc(C)ccc2cc1C#N [(3-Cyano-7-methyl-quinolin-2-ylsulfanyl)-acetic acid methyl ester] | 6.13
12 | Cc1ccc(C2C(C(=O)c3cnn(-c4ccccc4)c3C)C(=O)C(=O)N2CCN(C)C)o1 (stereo not given) [(4E)-1-[2-(dimethylamino)ethyl]-4-[hydroxy-(5-methyl-1-phenyl-4-pyrazolyl)methylidene]-5-(5-methyl-2-furanyl)pyrrolidine-2,3-dione] | 5.44
13 | CC(=NC1CCCC1)c1c(C)[nH]n(-c2nc3ccccc3s2)c1=O [(4Z)-2-(1,3-benzothiazol-2-yl)-4-[1-(cyclopentylamino)ethylidene]-5-methylpyrazol-3-one] | 6.13
14 | Cn1c(-c2ccc3c(c2)OCO3)cnc1NCc1ccccc1 [(5-Benzo[1,3]dioxol-5-yl-1-methyl-1H-imidazol-2-yl)-benzyl-amine] | < 4.96
15 | Fc1ccc2nc(Nc3nc4c(s3)CCCC4)sc2c1 [(6-fluoro-1,3-benzothiazol-2-yl)-(4,5,6,7-tetrahydro-1,3-benzothiazol-2-yl)amine] | 6.00
16 | CC(=N)C(C#N)C(=O)CSc1ccc2c(c1)OCCO2 (stereo not given) [(E)-3-amino-2-[2-(2,3-dihydro-1,4-benzodioxin-6-ylsulfanyl)acetyl]but-2-enenitrile] | 5.54
17 | O=C(Nc1ccc(NC(=O)c2cccs2)cn1)c1ccco1 [Furan-2-carboxylic acid {5-[(thiophene-2-carbonyl)-amino]-pyridin-2-yl}-amide] | 5.26
18 | COc1ccccc1Nc1nc2ccccc2[nH]1 [N-(2-methoxyphenyl)-1H-benzimidazol-2-amine] | 5.19
19 | COCCn1c(C)cc(C(=O)COC(=O)C23CC4CC(CC(O)(C4)C2)C3)c1C [[2-[1-(2-methoxyethyl)-2,5-dimethylpyrrol-3-yl]-2-oxoethyl] 3-hydroxyadamantane-1-carboxylate] | 6.09

Second part, the molecule after the results:

Row | pEC50 | Structure (SMILES)
20 | 6.35 | CC(=O)Nc1ccc(-c2cc3ccccc3o2)cc1 [MLS000036584]
21 | < 5.91 | O=C(Nc1nnc(C2CCCCC2)s1)c1ccco1 [MLS000039439]
22 | < 5.44 | CC(=O)c1c(C)[nH]c(C(=O)NCCc2cccc(C)c2)c1C [MLS000045238]
23 | < 4.00 | O=C(NCC1CCCO1)c1coc2nc3ccccc3nc12 (stereo not given) [MLS000046703]
24 | < 6.39 | O=C(Nc1ccc2c(c1)OCO2)c1ccc(COc2ccc3c(c2)CCC3)o1 [MLS000048173]
25 | 5.93 | COc1ccc(CCC(=O)Nc2ccc(-c3noc(-c4ccc(OC)c(OC)c4)n3)cc2)cc1 [MLS000049572]
26 | 5.93 | O=C(Nc1ccc(-c2cn3ccsc3n2)cc1)C1CC1 [MLS000053249]
27 | 6.23 | COc1ccc(NC(=O)c2ccc3c(c2)OCO3)cc1Cl [MLS000053302]
28 | 5.11 | CS(=O)(=O)c1ccc2nc(NC(=O)C3COc4ccccc4O3)sc2c1 (stereo not given) [MLS000056123]
29 | 6.14 | O=C(Nc1ccc(CN2CCOCC2)cc1)c1cc2ccccc2o1 [MLS000062478]
30 | 5.55 | CC(C)(C)c1cc(NC(=O)C2CCCO2)no1 (stereo not given) [MLS000065845]
31 | 5.51 | O=C(NCc1ccco1)c1cc2c(s1)CCCCC2 [MLS000065859]
32 | 5.86 | CCOC(=O)c1cc2cc(OC)ccc2[nH]1 [MLS000071430]
33 | 5.92 | C=CCn1c(-c2ccccc2)c[nH]c1=S [MLS000071728]
34 | < 4.96 | CCOc1ccc(OCC)c(NC(=O)CSc2nc3c(c(=O)n(C)c(=O)n3C)n2C(C)C)c1 [MLS000072726]
35 | 5.72 | Cc1cnc(NC(=O)CSc2nnc(-c3ccccc3)o2)s1 [MLS000077990]
36 | 6.26 | CCOC(=O)c1[nH]c2ccc(C)cc2c1N [MLS000079379]
37 | 6.12 | Nc1nc2c(s1)CCc1c-2cnn1-c1ccccc1 [MLS000085948]
38 | < 4.00 | CN(C)C=Nc1ncnc2c1cnn2-c1ccc(C(F)(F)F)cn1 [MLS000087855]
39 | 5.35 | CCCc1cc(C(=O)Nc2ccccc2SC)no1 [MLS000116378]
40 | 5.66 | CC(=O)c1cccc(NC(=O)c2cnn3ccccc23)c1 [MLS000118777]
41 | 5.84 | CC(=O)Nc1ccc(-c2nc3c(C)cccc3[nH]2)cc1 [SMR000001134]
42 | < 4.96 | Cc1cc2n(n1)C(c1ccc(N(C)C)cc1)Nc1ccccc1-2 (stereo not given) [SMR000015202]
43 | 5.17 | CC1(C)CC(=O)C(=CNc2ccccc2)C(=O)C1 [SMR000054233]
44 | 5.11 | O=c1[nH]c2ccccc2nc1-c1cccs1 [SMR000068248]
45 | 5.18 | CN(C)C(=O)CSc1nnc(C23CC4CC(CC(C4)C2)C3)o1 [SMR000077996]
46 | 6.27 | CCCCC1CCC(c2nc(-c3ccccn3)no2)CC1 (stereo not given) [SMR000105468]
47 | < 4.96 | CC1(C)CC(=O)C(=CNc2ccc3[nH]ncc3c2)C(=O)C1 [SMR000111453]

same assay, conditions: inactive by the depositor's call

Row | pEC50 | Structure (SMILES)
48 | 4.91 | CCN(CC)c1ccc(-n2cc3c(=O)n(C)c(=O)n(C)c3c2)cc1 [6-(4-Diethylamino-phenyl)-1,3-dimethyl-1,6-dihydro-pyrrolo[3,4-d]pyrimidine-2,4-dione]
49 | 5.00 | Cc1cc(C(=O)Nc2sc3c(c2C#N)CCC(C(C)(C)C)C3)no1 (stereo not given) [MLS000087312]
50 | 4.91 | CCOc1ccc(OCC)c(NC(=O)C2CCCN2S(=O)(=O)c2cccc3cccnc23)c1 (stereo not given) [MLS000119093]
